# Results from patent US7759101B2, “Ginsenoside glycosidases hydrolyzing ginsenoside sugar moieties and uses thereof” (priority 2000, dated 2010).
# Legend:
# [1] = test system: ginsenoside glycosidase I; assay: Hydrolysis of ginsenosides with Fraction 36 (ginsenoside glycosidase I); format: biochemical, Aspergillus niger; conditions: Fraction 36; substrates Rb1, Rb2, Rc, Rd 0.5%; Rg3, F2, Rh2, C—K, Rg2 0.05%; pH 5.0, 30° C.
# Description: 10 ml of the enzyme solution obtained in 1.1 was subjected to a DEAE-Cellulose DE-52 column (Pharamcia, 1.5×6.7 cm) to absorb the enzyme protein. The column was then eluted with a NaCl gradient (0.06, 0.12, 0.18, 0.24, 0.3, 0.4, 0.5 and 0.6M).
# Fractions 36 and 54 from the DEAE-Cellulose column appeared as one dot on a SDS-polyacrylamide gel, representing the purified enzymes.
# Fraction 36 which was eluted with 0.12 M NaCl from the DEAE-Cellulose column was lyophilized and appeared as a single dot with a molecular weight of 51,000 Daltons when running on a SDS-polyacrylamide gel.
# To observe the differences between the ginsenoside glycosidases of the invention and known exo-cellulases, the ginsenoside glycosidases of the invention were compared with cellulose β-glucosidase (E.C. 3.2.1.21) in two reactions with 0.5% ginsenosides Rb1 or Rd as substrate.
# [2] = test system: ginsenoside glycosidases from A. oryzae; assay: Hydrolysis of ginsenosides with crude ginsenoside glycosidases from A. oryzae, TLC; format: biochemical, Aspergillus oryzae; conditions: pH 5.0, 30° C., 18 hours
# Description: (§1) Aspergillus oryzae FFCCDL-39 g (available from Food Fermentation Culture Collection of Dalian Institute of Light Industry) was cultured with stirring in a medium containing 1% ginseng extracts and 3% wheat bran extracts at 30° C. for 64 hours. Cells were removed by centrifugation, after which (NH4)2SO4 powder was added to 2000 ml of the cell-free supernatant with stirring to 65% saturation. The solution was stored overnight at 4° C. and precipitated proteins were collected by centrifugation, resuspended in 80 ml of distilled water and dialyzed against 0.01M acetate buffer pH 5. Insolubles were removed by centrifugation, and the solution was adjusted to 200 ml with 0.01 M acetate buffer pH 5. The crude enzyme solution may be used to hydrolyze ginsenosides or to purify the enzymes.
# Each 100 mg of ginsenosides Rb1, Rb2, Rc Re and Rd and each 10 mg of ginsenoside Rg3 and Rg2 were dissolved in separate tubes containing 10 ml of 0.01M acetate buffer pH 5. 10 ml of the crude enzyme solution obtained as above was added to each tube and allowed to react at 30° C. for 18 hours. Then 10 ml of n-butanol was added to stop the reactions. The products were measured by thin layer chromatography (TLC) (Silica gel 60-F254, Merck; chloroform:methanol:water 70:30:5). […]
# [3] = test system: ginsenoside glycosidase I from ginseng plants; assay: Hydrolysis of ginsenosides with fraction 52 (ginsenoside glycosidase I) from ginseng plant; format: biochemical; conditions: for Percentage of F2 in the reaction product / Percentage of Rd in the reaction product: Fraction 52, substrate 0.5%, 50° C., pH 5.0, 18 hours
# Description: (§2) 200 g of fresh ginseng root was cut into pieces and added to 600 ml of 0.02 M acetate buffer pH 5. Supernatant was obtained by filtration after the mixture stand at 40° C. for 2 hours. To the supernatant (NH4)2SO4 was added gradually until 70% saturation and the mixture stand overnight at 4° C. Then protein pellets were collected by centrifugation and redissolved in 15 ml of distilled water. The solution was dialyzed against 0.02 M Tris-HCl pH 7.4. Insolubles were removed by centrifugation and the volume of the supernatant was adjusted to 20 ml.
# (§3) 5 ml of the enzyme solution was subjected to a DEAE-Cellulose DE-25 column (Whatman, 1.4×6.7 cm). The column was eluted with a KCl gradient (0.06, 0.12, 0.18 and 0.24 M) in 0.02 M Tris-HCl pH 7.4. After elution, each fraction was tested for the activity of hydrolyzing ginsenosides. […] Fraction 52 can also hydrolyze the glucosidic bond at the twentieth carbon atom of Rb and Rc to give ginsenoside F2.
# [4] = test system: ginsenoside glycosidases from wheat bran; assay: Hydrolysis of ginsenosides with ginsenoside glycosidases from wheat bran; format: biochemical; conditions: 10 ml of 1% ginsenoside substrate, 40° C., 20 hours
# Description: 500 g of wheat bran was added to 2500 ml of 0.02 M acetate buffer pH 5 and extracted at 40° C. for 2 hours. 2000 ml of supernatant were obtained by filtration to which (NH4)2SO4 was added gradually with stirring until 70% saturation. The mixture stand at 4° C. overnight. Protein pellets were collected by centrifugation and redissolved in 80 ml of distilled water and dialyzed against 0.02 M acetate buffer pH 5.0. Insolubles were removed by centrifugation and the supernatant was adjusted to a volume of 200 ml to obtain the crude enzyme solution.
# 10 ml of the enzyme solution was allowed to react with 10 ml of 1% ginsenoside substrate at 40° C. for 20 hours.
# [5] = test system: ginsenoside glycosidases from A. niger; assay: Hydrolysis of ginsenosides with crude ginsenoside glycosidases from A. niger, products measured by TLC; format: biochemical, Aspergillus niger; conditions: for effect of metal ions on the enzyme reaction: hydrolysis of Rb1, pH 5.0, 30°C.
# Description: as §1, with “niger FFCCDL-48” for “oryzae FFCCDL-39”, “g” for “g (available from Food Fermentation Culture Collection of Dalian Institute of Light Industry)”, “cultured” for “cultured with stirring”, “54” for “64”
# 100 mg each of ginsenosides Rb1, Rb2, Rc and Rd and 10 mg of ginsenoside Rg3 were dissolved in separate tubes containing 10 ml of 0.01M acetate buffer pH 5. 10 ml of the crude enzyme solution obtained in 1.1 was added to each tube and allowed to react at 30° C. for 18 hours. Then 10 ml of n-butanol was added to stop the reactions. The products were measured by thin layer chromatography (TLC) (Silica gel 60-F254, Merck; chloroform:methanol:water 70:30:5).
# Experiments were carried out to explore the effects of temperature, pH, metal ions and reaction time on the enzyme reaction, in order to further characterize the enzymes.
# 100 mg of ginsenoside Rb1 was used in a reaction under the conditions as described in 1.2 and the effect of temperature was shown in Table 2.
# [6] = test system: ginsenoside glycosidase III from ginseng plant; assay: Hydrolysis of Rd with fraction 37 (ginsenoside glycosidase III) from ginseng plant; format: biochemical; conditions: ginsenoside glycosidase III from ginseng plant
# Description: as §2, §3
SMILES,Percentage of C—K in the reaction product [1] [%],Percentage of F2 in the reaction product [1] [%],Percentage of Rd in the reaction product [1] [%],Percentage of Rh2 in the reaction product [1] [%],Percentage of aglycone in the reaction product [1] [%],Percentage of C—K in the reaction product [2] [%],Percentage of F2 in the reaction product [2] [%],Percentage of Rd in the reaction product [2] [%],Percentage of aglycone in the reaction product [2] [%],Percentage of F2 in the reaction product [3] [%],Percentage of Rd in the reaction product [3] [%],Percentage of F2 in the reaction product [4] [%],Percentage of Rd in the reaction product [4] [%],"Percentage of C—K in the reaction product ([5]; pH 5, 30° C., 18 hours) [%]","Percentage of F2 in the reaction product ([5]; pH 5, 30° C., 18 hours) [%]","Percentage of Rd in the reaction product ([5]; pH 5, 30° C., 18 hours) [%]","Percentage of Rh2 in the reaction product ([5]; pH 5, 30° C., 18 hours) [%]","Percentage of aglycone in the reaction product ([5]; pH 5, 30° C., 18 hours) [%]",effect of metal ions on the enzyme reaction [5],further results
"CC(C)=CCC[C@](C)(O[C@@H]1O[C@H](CO[C@@H]2O[C@@H](CO)[C@H](O)[C@H]2O)[C@@H](O)[C@H](O)[C@H]1O)[C@H]1CC[C@]2(C)[C@@H]1[C@H](O)C[C@@H]1[C@@]3(C)CC[C@H](O[C@@H]4O[C@H](CO)[C@@H](O)[C@H](O)[C@H]4O[C@@H]4O[C@H](CO)[C@@H](O)[C@H](O)[C@H]4O)C(C)(C)[C@@H]3CC[C@]12C [Rc, ginsenoside Rc]",52,36,8,2,2,56,30,19,5,55,45,55,43,15,58,12,2,5,–,"Percentage of Rc in the reaction product ([5]; pH 5, 30° C., 18 hours): 8%"
[Pb+2] [Pb^++],–,–,–,–,–,–,–,–,–,–,–,–,–,–,–,–,–,–,inhibit the reaction,–
[Ca+2] [Ca^++],–,–,–,–,–,–,–,–,–,–,–,–,–,–,–,–,–,–,slightly accelerate the conversion rate,effect of metal ion on the enzyme [6]: enhancing effect; effect of metal ion on the enzyme ([3]; ginsenoside glycosidase I from ginseng plant): enhancing effect
"CC(C)=CCC[C@](C)(O[C@@H]1O[C@H](CO[C@@H]2OC[C@H](O)[C@H](O)[C@H]2O)[C@@H](O)[C@H](O)[C@H]1O)[C@H]1CC[C@]2(C)[C@@H]1[C@H](O)C[C@@H]1[C@@]3(C)CC[C@H](O[C@@H]4O[C@H](CO)[C@@H](O)[C@H](O)[C@H]4O[C@@H]4O[C@H](CO)[C@@H](O)[C@H](O)[C@H]4O)C(C)(C)[C@@H]3CC[C@]12C [Rb2, ginsenoside Rb2]",54,35,9,1,1,54,35,18,3,65,35,50,45,17,57,13,3,3,–,"Percentage of Rb2 in the reaction product ([5]; pH 5, 30° C., 18 hours): 7%"
"CC(C)=CCC[C@](C)(O[C@@H]1O[C@H](CO)[C@@H](O)[C@H](O)[C@H]1O)[C@H]1CC[C@]2(C)[C@@H]1[C@H](O)C[C@@H]1[C@@]3(C)CC[C@H](O[C@@H]4O[C@H](CO)[C@@H](O)[C@H](O)[C@H]4O)C(C)(C)[C@@H]3CC[C@]12C [F2, ginsenoside F2]",62,30,–,3,5,–,–,–,–,–,–,–,–,–,–,–,–,–,–,–
"CC(C)=CCC[C@](C)(O)[C@H]1CC[C@]2(C)[C@@H]1[C@H](O)C[C@@H]1[C@@]3(C)CC[C@H](O[C@@H]4O[C@H](CO)[C@@H](O)[C@H](O)[C@H]4O)C(C)(C)[C@@H]3CC[C@]12C [Rh2, ginsenoside Rh2]",–,–,–,89,10,–,–,–,–,–,–,–,–,–,–,–,–,–,–,–
